Test systems include OVCAR-8 ovarian; NCI-H522 lung; SK-MEL-2 melanoma; SR leukemia; K-562 leukemia; MDA-MB-435; SNB-75 CNS; MOLT-4 leukemia; U251 CNS; RXF 393 renal; OVCAR-3 ovarian; HL-60(TB) leukemia; NCI-H23 lung; M14 melanoma; A498 renal; RPMI-8226 leukemia; UACC-62 melanoma; MDA-MB-231 breast.
Common to all, as to assay: NCI anticancer screen, dose series, 48 h

Each structure is given as a SMILES string.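 Interpolation was linear, between the two tested concentrations surrounding the appropriate level; five concentrations were tested over 48 hours in 96-well plates. TGI denotes the concentration required for complete inhibition of growth.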

Turning to `CN1CCN(c2nc3ccccc3nc2C(=O)c2ccc(Cl)cc2)CC1`, the TGI with OVCAR-8 ovarian, with NCI-H522 lung, in the assay with SK-MEL-2 melanoma, in the assay on SR leukemia, in the assay on K-562 leukemia and with MDA-MB-435 was over 100 µM throughout. Also, the TGI in the assay with SNB-75 CNS was over 100 µM; in the assay with MOLT-4 leukemia, over 100 µM; with U251 CNS it was over 100 µM; in the assay with RXF 393 renal it was 77.3 µM; in the assay with OVCAR-3 ovarian, over 100 µM; in the assay with HL-60(TB) leukemia, 98 µM. Further, the TGI in the assay with NCI-H23 lung was over 100 µM; in the assay on M14 melanoma it was 62.8 µM; in the assay with A498 renal it was over 100 µM; in the assay with RPMI-8226 leukemia it was 77.4 µM; in the assay on UACC-62 melanoma, 76.2 µM.
Turning to `COc1ncnc2c1cnn2Cc1cn(COCC(O)CO)nn1` (stereo not given), the TGI with OVCAR-8 ovarian is over 100 µM; with NCI-H522 lung, 26.2 µM; in the assay on SK-MEL-2 melanoma, over 100 µM; in the assay with SR leukemia, over 100 µM; in the assay on K-562 leukemia it was over 100 µM; in the assay with MDA-MB-435, over 100 µM. The TGI in the assay on MOLT-4 leukemia, with MDA-MB-231 breast, in the assay on U251 CNS, with OVCAR-3 ovarian, with HL-60(TB) leukemia and in the assay on NCI-H23 lung was over 100 µM each time. The TGI in the assay with M14 melanoma, with A498 renal, in the assay on RPMI-8226 leukemia and in the assay with UACC-62 melanoma was over 100 µM throughout.
Turning to `COc1cc2c(cc1OC)C1Cc3ccccc3CCN1CC2` (stereo not given), the TGI in the assay on OVCAR-8 ovarian, in the assay with NCI-H522 lung, with SK-MEL-2 melanoma, with SR leukemia, with K-562 leukemia and in the assay on MDA-MB-435 was over 100 µM each time. The TGI in the assay on SNB-75 CNS, in the assay on MOLT-4 leukemia, with MDA-MB-231 breast, with U251 CNS, in the assay with OVCAR-3 ovarian and in the assay with HL-60(TB) leukemia was over 100 µM each time. Further, the TGI in the assay with NCI-H23 lung, in the assay with M14 melanoma, with A498 renal, in the assay with RPMI-8226 leukemia and in the assay with UACC-62 melanoma was over 100 µM each time.
On to `CSCCC(NCc1c(O)ccc2ccc(=O)oc12)C(=O)O` (stereo not given), for which the TGI in the assay on OVCAR-8 ovarian, in the assay on NCI-H522 lung, in the assay with SK-MEL-2 melanoma, in the assay with SR leukemia, in the assay with K-562 leukemia and in the assay with MDA-MB-435 was over 100 µM each time. In addition, the TGI in the assay on SNB-75 CNS, with MOLT-4 leukemia, in the assay on MDA-MB-231 breast, in the assay on U251 CNS, in the assay on RXF 393 renal and in the assay with OVCAR-3 ovarian was over 100 µM each time. For the same molecule, the TGI in the assay on HL-60(TB) leukemia, in the assay with NCI-H23 lung, in the assay with M14 melanoma, in the assay with RPMI-8226 leukemia and with UACC-62 melanoma was over 100 µM in each case.
As for `COC(=O)[C@@H]1C=C[C@@H](C#N)n2c(=O)n(-c3ccccc3)c(=O)n21`, the TGI is 57.8 µM in the assay on OVCAR-8 ovarian; 32.4 µM in the assay on NCI-H522 lung; 47.4 µM with SR leukemia; over 100 µM in the assay on K-562 leukemia; over 100 µM with MDA-MB-435; 79 µM in the assay on SNB-75 CNS. For the same molecule, the TGI with MOLT-4 leukemia was 67.1 µM; in the assay on MDA-MB-231 breast it was 93.6 µM; in the assay on U251 CNS, over 100 µM; in the assay on OVCAR-3 ovarian, 58.9 µM; in the assay with NCI-H23 lung, over 100 µM; in the assay with M14 melanoma, over 100 µM. Moreover, the TGI in the assay with A498 renal is over 100 µM; in the assay with RPMI-8226 leukemia it was 73.3 µM; in the assay with UACC-62 melanoma, over 100 µM.
With `Cc1cccc(/C=N/NC(=S)NCc2ccccn2)n1`, the TGI in the assay with OVCAR-8 ovarian, in the assay on NCI-H522 lung, with SK-MEL-2 melanoma, in the assay on SR leukemia, in the assay with K-562 leukemia and in the assay on MDA-MB-435 was over 100 µM each time. Moreover, the TGI was 73.6 µM in the assay on SNB-75 CNS; over 100 µM with MOLT-4 leukemia; over 100 µM in the assay with MDA-MB-231 breast; over 100 µM with U251 CNS; over 100 µM with OVCAR-3 ovarian; over 100 µM in the assay on HL-60(TB) leukemia. Besides, the TGI with NCI-H23 lung was over 100 µM; in the assay on M14 melanoma, 42.6 µM; in the assay on A498 renal it was over 100 µM; in the assay with RPMI-8226 leukemia, over 100 µM; in the assay on UACC-62 melanoma it was 54.3 µM.
Consider `Cc1ccc(S(=O)(=O)N2CCCSCCSCCCSCC2)cc1`, for which the TGI in the assay on OVCAR-8 ovarian, with NCI-H522 lung, with SR leukemia, in the assay on K-562 leukemia, in the assay with MDA-MB-435 and with SNB-75 CNS was over 100 µM throughout. Moreover, the TGI in the assay with MOLT-4 leukemia, in the assay on MDA-MB-231 breast, with U251 CNS, in the assay with OVCAR-3 ovarian, with HL-60(TB) leukemia and in the assay with NCI-H23 lung was over 100 µM in each case. Besides, the TGI in the assay with M14 melanoma and with UACC-62 melanoma was over 100 µM in each case.
Regarding `O=C1/C(=C\c2ccc([N+](=O)[O-])cc2)Sc2scc(-c3ccc(O)c(O)c3)[n+]21`, the TGI with OVCAR-8 ovarian is 29.3 µM; in the assay on NCI-H522 lung, 5.34 µM; in the assay with SK-MEL-2 melanoma, 29.3 µM; in the assay with SR leukemia, 27.9 µM; in the assay on K-562 leukemia, over 100 µM; in the assay on MDA-MB-435, 21.9 µM. Also, the TGI came out at 25.9 µM in the assay on SNB-75 CNS; 51.3 µM in the assay on MOLT-4 leukemia; 66.9 µM in the assay with MDA-MB-231 breast; 20.5 µM in the assay with U251 CNS; 9.79 µM with OVCAR-3 ovarian; 8.93 µM with HL-60(TB) leukemia. For the same molecule, the TGI with NCI-H23 lung is 44.6 µM; in the assay with M14 melanoma it was 27.4 µM; in the assay on RPMI-8226 leukemia it was 15.2 µM; in the assay on UACC-62 melanoma, 23.4 µM.
On to `CC(C)Nc1[nH]c(C(=O)c2ccccc2)c(N)c1C(=S)Nc1ccccc1`, for which the TGI was over 100 µM in the assay on OVCAR-8 ovarian; over 100 µM in the assay with NCI-H522 lung; 52.1 µM in the assay with SK-MEL-2 melanoma; over 100 µM with SR leukemia; over 100 µM with K-562 leukemia; 99.1 µM in the assay on MDA-MB-435. Further, the TGI with SNB-75 CNS, with MOLT-4 leukemia, in the assay with MDA-MB-231 breast, in the assay on U251 CNS, in the assay with OVCAR-3 ovarian and in the assay with HL-60(TB) leukemia was over 100 µM in each case. For the same molecule, the TGI in the assay with NCI-H23 lung was over 100 µM; with M14 melanoma, 48.5 µM; in the assay on A498 renal it was over 100 µM; in the assay with UACC-62 melanoma, 35.2 µM.

Values taken from PubChem BioAssay (NCI).
